Assay results: the NIST ThermoML archive (doi:10.1016/j.fluid.2004.09.013)

Conditions: for mass density: Fluid (supercritical or subcritical phases), Vibrating tube method

C=CCC [1-butene]
Conditions | Critical density [kg/m3] | mass density [kg/m3]
453.25 K, 9992 kPa | – | 366.88
458.24 K, 5019 kPa | – | 127.66
458.24 K, 14983 kPa | – | 409.67
458.24 K, 20004 kPa | – | 440.23
458.24 K, 29989 kPa | – | 478.1
458.24 K, 34985 kPa | – | 491.83
458.24 K, 39994 kPa | – | 503.63
458.25 K, 9993 kPa | – | 354.52
458.25 K, 25009 kPa | – | 461.51
463.24 K, 5016 kPa | – | 120.75
463.24 K, 14996 kPa | – | 401.9
463.24 K, 19997 kPa | – | 433.9
463.24 K, 25004 kPa | – | 456.08
463.24 K, 30003 kPa | – | 473.27
463.24 K, 34993 kPa | – | 487.39
463.25 K, 9983 kPa | – | 341.52
463.25 K, 39998 kPa | – | 499.47
468.24 K, 5016 kPa | – | 115
468.24 K, 9989 kPa | – | 328.56
468.24 K, 14982 kPa | – | 393.76
468.24 K, 19984 kPa | – | 427.48
468.24 K, 24997 kPa | – | 450.6
468.24 K, 30000 kPa | – | 468.38
468.24 K, 35011 kPa | – | 482.95
468.24 K, 39999 kPa | – | 495.31
473.24 K, 5018 kPa | – | 110.27
473.24 K, 9985 kPa | – | 315.25
473.24 K, 19988 kPa | – | 421.13
473.24 K, 24992 kPa | – | 445.14
473.24 K, 29997 kPa | – | 463.51
473.24 K, 35002 kPa | – | 478.49
473.24 K, 39996 kPa | – | 491.17
473.25 K, 14995 kPa | – | 385.74
478.24 K, 5019 kPa | – | 106.11
478.24 K, 9987 kPa | – | 302.04
478.24 K, 14989 kPa | – | 377.47
478.24 K, 19983 kPa | – | 414.69
478.24 K, 24987 kPa | – | 439.66
478.24 K, 30006 kPa | – | 458.68
478.24 K, 35011 kPa | – | 474.08
478.24 K, 39998 kPa | – | 487.02
483.24 K, 5019 kPa | – | 102.43
483.24 K, 9986 kPa | – | 289.02
483.24 K, 14996 kPa | – | 369.24
483.24 K, 19994 kPa | – | 408.37
483.24 K, 24993 kPa | – | 434.22
483.24 K, 30007 kPa | – | 453.8
483.24 K, 35009 kPa | – | 469.63
483.24 K, 39997 kPa | – | 482.92
488.24 K, 5019 kPa | – | 99.18
488.24 K, 9991 kPa | – | 276.55
488.24 K, 14995 kPa | – | 361.05
488.24 K, 20003 kPa | – | 402.02
488.24 K, 24984 kPa | – | 428.73
488.24 K, 29996 kPa | – | 448.96
488.24 K, 35002 kPa | – | 465.2
488.24 K, 39995 kPa | – | 478.82
493.24 K, 5019 kPa | – | 96.24
493.24 K, 9993 kPa | – | 264.66
493.24 K, 14985 kPa | – | 352.7
493.24 K, 19990 kPa | – | 395.6
493.24 K, 24997 kPa | – | 423.36
493.24 K, 30000 kPa | – | 444.14
493.24 K, 35000 kPa | – | 460.8
493.24 K, 39994 kPa | – | 474.74
498.24 K, 5019 kPa | – | 93.59
498.24 K, 9985 kPa | – | 253.12
498.24 K, 14988 kPa | – | 344.51
498.24 K, 19988 kPa | – | 389.08
498.24 K, 25004 kPa | – | 417.97
498.24 K, 30000 kPa | – | 439.33
498.24 K, 35005 kPa | – | 456.43
498.24 K, 39995 kPa | – | 470.68
503.24 K, 5016 kPa | – | 91.1
503.24 K, 9996 kPa | – | 242.88
503.24 K, 14997 kPa | – | 336.49
503.24 K, 19985 kPa | – | 382.45
503.24 K, 25003 kPa | – | 412.55
503.24 K, 29994 kPa | – | 434.51
503.24 K, 34998 kPa | – | 452.04
503.24 K, 39994 kPa | – | 466.64
508.24 K, 5019 kPa | – | 88.94
508.24 K, 9985 kPa | – | 232.83
508.24 K, 14995 kPa | – | 328.41
508.24 K, 20001 kPa | – | 376.3
508.24 K, 25001 kPa | – | 407.17
508.24 K, 29985 kPa | – | 429.72
508.24 K, 34995 kPa | – | 447.71
508.24 K, 39994 kPa | – | 462.63
513.23 K, 19985 kPa | – | 369.92
513.23 K, 35000 kPa | – | 443.43
513.24 K, 5019 kPa | – | 86.9
513.24 K, 9990 kPa | – | 224.06
513.24 K, 14981 kPa | – | 320.32
513.24 K, 24995 kPa | – | 401.8
513.24 K, 30001 kPa | – | 425.05
513.24 K, 39991 kPa | – | 458.64
518.23 K, 5019 kPa | – | 85.01
518.23 K, 14997 kPa | – | 312.76
518.23 K, 19988 kPa | – | 363.73
518.23 K, 25002 kPa | – | 396.53
518.23 K, 30001 kPa | – | 420.37
518.23 K, 35013 kPa | – | 439.18
518.24 K, 9981 kPa | – | 215.7
518.24 K, 39995 kPa | – | 454.74
523.23 K, 5018 kPa | – | 83.27
523.23 K, 9990 kPa | – | 208.53
523.23 K, 14996 kPa | – | 305.24
523.23 K, 19995 kPa | – | 357.64
523.23 K, 25003 kPa | – | 391.29
523.23 K, 30001 kPa | – | 415.71
523.23 K, 35000 kPa | – | 434.96
523.23 K, 40001 kPa | – | 450.86
Liquid, visual observation in a variable volume cell:FP | 237.88 | –

Liquid
Conditions | Critical pressure [kPa] | Critical temperature [K]
– | 4005.1 | 419.29
